Measurements: US20190011433A1, “CELL CO-CULTURE SYSTEMS AND USES THEREOF” (Dana-Farber Cancer Institute, Inc., priority 2007, published 2019)
“Also recorded” adds a separate entry of the source.

How the values were obtained:
[1] = tested on: MM-1S-GFP-luc myeloma cells; assay: Flow cytometry (Apo2.7) drug sensitivity testing in tumor-stromal co-culture; type: cell-based, human; settings: Doxo 250 ng/mL, 48 hrs
Method: Applicants also evaluated the anti-tumor effects of these drugs in the presence of stromal cells, and compared the results obtained with in vitro compartment-specific bioluminescence vs. flow cytometric evaluation of drug-induced cell death. Specifically, luciferase-expressing MM cells were treated in vitro with Doxo (250 ng/mL) or vehicle, in the absence vs. presence of bone marrow stromal cells (BMSCs). For flow cytometry-based drug sensitivity testing in tumor-stromal co-culture, tumor cell viability in the presence vs. absence of stromal cells was evaluated by flow cytometry. Specifically, after incubation with drug or vehicle, MM-1S-GFP-luc myeloma cells were stained with Apo2.7 (BD Biosciences) to detect apoptotic cells. GFP positive myeloma cells were gated to distinguish them from GFP negative stromal cells in the co-cultures. The ratio of Apo2.7 positive cells in the GFP^+ compartment of the drug-treated condition vs. the vehicle-treated condition provided a quantified expression of viable cells in response to drug treatment. […] These flow cytometric results were consistent with results obtained with CS-BLI based applications as described in Example III.

FRO-luc-neo cells = assay: CS-BLI drug sensitivity of FRO-luc-neo cells alone or with HS-5 BMSCs; type: cell-based; settings: FRO-luc-neo alone or with HS-5 BMSCs (10,000/well), 48 hrs
Method: (§1) MDA-MB-231met-luc-neo (FIG. 18A, FIG. 18B), A375-luc-neo (FIG. 18C, FIG. 18D) and FRO-luc-neo (FIG. 18E, FIG. 18F) cells were plated either alone or mixed with HS-5 BMSCs (10,000 /well) and treated the following day. The cultures of tumor cells and their co-cultures with BMSCs were incubated for an additional 48 hrs.

A375-luc-neo cells = assay: CS-BLI drug sensitivity of A375-luc-neo cells alone or with HS-5 BMSCs; type: cell-based; settings: A375-luc-neo alone or with HS-5 BMSCs (10,000/well), 48 hrs
Method: as §1

[2] = tested on: KU812F-luc leukemia cells; assay: CS-BLI drug sensitivity of KU812F-luc leukemia cells in presence vs absence of HS-5 BMSCs; type: cell-based; settings: presence vs absence of HS-5 BMSCs (10,000 per well)
From the text: In another set of experiments, Applicants tested and observed similar protective/sensitization effect of stroma cell on KU812F-luc cells on various drugs (data not shown).
(§2) Applicants expanded the application of in vitro compartment-specific bioluminescence imaging assays beyond the MM cells to other tumor models, namely a few leukemic cell lines. Applicants specifically tested luciferase-expressing K562-luc-neo and KU812F-luc-neo leukemic cells against standard anti-leukemia agents, including AraC and Doxo, in the presence vs. absence of HS-5 stromal cells (FIG. 7A and FIG. 7B).

[3] = tested on: MDA-MB-231met-luc-neo cells; assay: CS-BLI drug sensitivity of MDA-MB-231met-luc-neo cells alone or with HS-5 BMSCs; type: cell-based; settings: MDA-MB-231met-luc-neo alone or with HS-5 BMSCs (10,000/well), 48 hrs
Method: as §1

[4] = tested on: MM-1S-GFP-luc myeloma cells; assay: CS-BLI drug sensitivity of MM-1S-GFP-luc cells in presence vs absence of stromal cells; type: cell-based, human
Method: Luciferin (7.5 mg/mL; Xenogen Corp, Alameda, Calif.) was added at the volume stated in each experiment. Cell viability and the precise cell counts were established by Trypan blue exclusion assay immediately before plating of the cells. Compartment-specific bioluminescence emitted by individual wells of these plates was measured with two different bioluminescence imaging modalities, namely a Xenogen IVIS® Imaging System (FIG. 1A and FIG. 1B) and a standard luminometer plate reader—Luminoskan luminometer (Labsystems, MA) (FIG. 1C). The results with each method were analyzed for the linearity of the bioluminescent signal vs. cell number using the Living Image® software (Xenogen Corp, Alameda Calif.).

[5] = tested on: MM-1R-GFP-luc myeloma cells; assay: CS-BLI drug sensitivity of MM-1R-GFP-luc cells in presence vs absence of stromal cells; settings: MM-1R-GFP-luc (Dex-resistant), presence vs absence of HS-5 BMSCs (10,000 per well)
K562-luc leukemia cells = assay: CS-BLI drug sensitivity of K562-luc leukemia cells in presence vs absence of HS-5 BMSCs; type: cell-based; settings: presence vs absence of HS-5 BMSCs (10,000 per well)
From the text: as §2

COc1cccc2c1C(=O)c1c(O)c3c(c(O)c1C2=O)C[C@@](O)(C(=O)CO)C[C@@H]3O[C@H]1C[C@H](N)[C@H](O)[C@H](C)O1 [Doxo, Doxorubicin]
Apo2.7 expression in GFP+ myeloma cells, co-culture with HS-5 vs absence of stroma [1]: decreased expression of Apo2.7
effect of BMSC co-culture on tumor cell response to drug (protection) (FRO-luc-neo cells): modest protection
effect of BMSC co-culture on tumor cell response to drug (protection) (A375-luc-neo cells): no protection
effect of BMSC co-culture on tumor cell response to drug (protection) [2]: did not affect their response
effect of BMSC co-culture on tumor cell response to drug (protection) [3]: modest protection
effect of BMSC co-culture on tumor cell response to drug (protection) ([4]; presence vs absence of HS-5 BMSCs (10,000 per well)): attenuated the responses; also recorded: conferred protection; also recorded: confer protection
effect of BMSC co-culture on tumor cell response to drug (protection) ([4]; presence vs absence of KM101, KM103, KM104, KM105 BMSC lines, Doxo 0-250 ng/mL): protective effects; also recorded: conferred protection
effect of BMSC co-culture on tumor cell response to drug (protection) [5]: attenuated the responses; also recorded: confer protection
effect of BMSC co-culture on tumor cell response to drug (protection) (K562-luc leukemia cells): do not confer protection
